Test results reported in patent publication US6914045B2, “Glycopeptide antibiotics” (Wyeth Holdings Corporation, priority 2001, dated 2005).

How the values were obtained:
Experiment in all cases: in vitro antibacterial evaluation, MIC by broth dilution
Type in all cases: cell-based
Streptococcus sp. = conditions: broth dilution, 18 hours at 35° C.
Method: (§1) Methods for in vitro Antibacterial Evaluation (Table 1)
(§2) The minimum inhibitory concentration (MIC), the lowest concentration of the antibiotic which inhibits growth of the test organism, is determined by the broth dilution method using Muller-Hinton II […] (Baltimore Biological Laboratories) following the recommendations of the National Committee for Clinical Laboratory Standards [Methods for dilution antimicrobial susceptibility tests for bacteria that grow aerobically, approved standard M7-A2, National Committee for Clinical Laboratory Standards, Villanova, Pa.].
(§3) An inoculum level of 5×10^5 CFU/mL, and a range of antibiotic concentrations (64-0.06 μg/mL) is used. […] The test organisms include a spectrum of Gram-positive bacteria comprised of Staphylococcus sp., Streptococcus sp. and Enterococcus sp. These organisms include recent clinical isolates that are resistant to methicillin, penicillin and/or vancomycin.

Staphylococcus sp. = conditions: broth dilution, 18 hours at 35° C.; for MIC Staphylococcus aureus (GC 1131): strain GC 1131; for MIC Staphylococcus aureus (ATCC 29213): strain ATCC 29213; for MIC Staphylococcus aureus (GC 3051): strain GC 3051; for MIC Staphylococcus aureus (GC 3053): strain GC 3053; for MIC Staphylococcus aureus (GC 4541): strain GC 4541; for MIC Staphylococcus aureus (GC 4542): strain GC 4542; for MIC Staphylococcus aureus-SMITH (GC 4543): strain GC 4543; for MIC Staphylococcus aureus (GC 4544): strain GC 4544; for MIC Staphylococcus aureus (GC 4545): strain GC 4545; for MIC Staphylococcus haemolyticus (GC 4546): strain GC 4546; for MIC Coagulase Negative Staphylococcus (GC 4547): strain GC 4547; for MIC Coagulase Negative Staphylococcus (GC 4548): strain GC 4548; for MIC Coagulase Negative Staphylococcus (GC 4549): strain GC 4549; for MIC Coagulase Negative Staphylococcus (GC 4551): strain GC 4551
Method: as §1, §2, §3

Enterococcus sp. = conditions: broth dilution, 18 hours at 35° C.
Method: as §1, §2, §3

Escherichia coli = conditions: 18 hours at 35° C.

N=C1NCC(C(O)C2NC(=O)C(Cc3ccc(OC4OC(CO)C(OC5OC6COC(c7ccccc7)OC6C(O)C5O)C(O)C4O)cc3)NC(=O)C(CC3CCCCC3)NC(=O)CNC(=O)C(CO)NC(=O)C(C(O)C3CNC(=N)N3C3OC(CO)C(O)C(O)C3O)NC2=O)N1 (stereo not drawn) [Example 199]
32 µg/mL: MIC Escherichia coli (GC 4559) (Escherichia coli)
4 µg/mL: MIC Enterococcus faecalis (ATCC 29212) (Enterococcus sp.) | MIC Enterococcus faecalis (GC 2691) (Enterococcus sp.) | MIC Enterococcus faecalis (GC 3059) (Enterococcus sp.) | MIC Enterococcus faecalis (GC 4552) (Enterococcus sp.) | MIC Enterococcus faecalis (GC 4553) (Enterococcus sp.) | MIC Enterococcus faecalis (GC 4554) (Enterococcus sp.) | MIC Enterococcus faecium (GC 2243) (Enterococcus sp.) | MIC Enterococcus faecium (GC 4556) (Enterococcus sp.) | MIC Enterococcus faecalis (ATCC 29212) (Enterococcus sp.; inoculum 5×10^5 CFU/mL, strain ATCC 29212) | MIC Enterococcus faecium (GC 2243) (Enterococcus sp.; inoculum 5×10^5 CFU/mL, strain GC 2243) | MIC Enterococcus faecalis (GC 2691) (Enterococcus sp.; inoculum 5×10^5 CFU/mL, strain GC 2691) | MIC Enterococcus faecalis (GC 3059) (Enterococcus sp.; inoculum 5×10^5 CFU/mL, strain GC 3059) | MIC Enterococcus faecalis (GC 4552) (Enterococcus sp.; inoculum 5×10^5 CFU/mL, strain GC 4552) | MIC Enterococcus faecalis (GC 4553) (Enterococcus sp.; inoculum 5×10^5 CFU/mL, strain GC 4553) | MIC Enterococcus faecalis (GC 4554) (Enterococcus sp.; inoculum 5×10^5 CFU/mL, strain GC 4554) | MIC Enterococcus faecium (GC 4556) (Enterococcus sp.; inoculum 5×10^5 CFU/mL, strain GC 4556)
64 µg/mL: MIC Escherichia coli (ATCC 25922) (Escherichia coli)
<0.12 µg/mL: MIC Streptococcus agalactiae (GC 4564) (Streptococcus sp.) | MIC Streptococcus pneumoniae (ATCC 6301) (Streptococcus sp.) | MIC Streptococcus pneumoniae (GC 1894) (Streptococcus sp.) | MIC Streptococcus pneumoniae (GC 4565) (Streptococcus sp.) | MIC Streptococcus pyogenes (GC 4563) (Streptococcus sp.) | MIC Streptococcus pneumoniae (ATCC 6301) (Streptococcus sp.; inoculum 5×10^5 CFU/mL, strain ATCC 6301) | MIC Streptococcus pneumoniae (GC 1894) (Streptococcus sp.; inoculum 5×10^5 CFU/mL, strain GC 1894) | MIC Streptococcus pyogenes (GC 4563) (Streptococcus sp.; inoculum 5×10^5 CFU/mL, strain GC 4563) | MIC Streptococcus agalactiae (GC 4564) (Streptococcus sp.; inoculum 5×10^5 CFU/mL, strain GC 4564) | MIC Streptococcus pneumoniae (GC 4565) (Streptococcus sp.; inoculum 5×10^5 CFU/mL, strain GC 4565)
0.5 µg/mL: MIC Coagulase Negative Staphylococcus (GC 4548) (Staphylococcus sp.) | MIC Coagulase Negative Staphylococcus (GC 4549) (Staphylococcus sp.)
2 µg/mL: MIC Staphylococcus aureus (GC 1131) (Staphylococcus sp.; inoculum 5×10^5 CFU/mL) | MIC Staphylococcus aureus (ATCC 29213) (Staphylococcus sp.) | MIC Staphylococcus aureus (GC 1131) (Staphylococcus sp.) | MIC Staphylococcus aureus (GC 3053) (Staphylococcus sp.) | MIC Staphylococcus aureus (GC 4541) (Staphylococcus sp.) | MIC Staphylococcus aureus (GC 4544) (Staphylococcus sp.) | MIC Coagulase Negative Staphylococcus (GC 4547) (Staphylococcus sp.) | MIC Enterococcus avium (GC 4558) (Enterococcus sp.) | MIC Enterococcus faecalis (GC 2242) (Enterococcus sp.) | MIC Enterococcus faecalis (GC 6189) (Enterococcus sp.) | MIC Enterococcus faecium (GC 4557) (Enterococcus sp.) | MIC Enterococcus faecalis (GC 2242) (Enterococcus sp.; inoculum 5×10^5 CFU/mL, strain GC 2242) | MIC Enterococcus faecium (GC 4557) (Enterococcus sp.; inoculum 5×10^5 CFU/mL, strain GC 4557) | MIC Enterococcus avium (GC 4558) (Enterococcus sp.; inoculum 5×10^5 CFU/mL, strain GC 4558) | MIC Enterococcus faecalis (GC 6189) (Enterococcus sp.; inoculum 5×10^5 CFU/mL, strain GC 6189)
1 µg/mL: MIC Staphylococcus aureus (GC 3051) (Staphylococcus sp.) | MIC Staphylococcus aureus (GC 4542) (Staphylococcus sp.) | MIC Staphylococcus aureus-SMITH (GC 4543) (Staphylococcus sp.) | MIC Staphylococcus aureus (GC 4545) (Staphylococcus sp.) | MIC Staphylococcus haemolyticus (GC 4546) (Staphylococcus sp.) | MIC Coagulase Negative Staphylococcus (GC 4551) (Staphylococcus sp.) | MIC Escherichia coli (GC 4560) (Escherichia coli)

CC(c1ccccc1)C1NC(=O)CNC(=O)C(CO)NC(=O)C(C(O)C2CNC(=N)N2C2OC(CO)C(O)C(O)C2O)NC(=O)C(C(O)C2CNC(=N)N2)NC(=O)C(Cc2ccc3oc(SCc4ccccc4)nc3c2)NC1=O (stereo not drawn) [Example 45, Cyclo[3-[2-(benzylthio)-1,3-benzoxazol-5-yl]alanyl-3-(2-iminoimidazolidin-4-yl)seryl-3-(3-hexopyranosyl-2-iminoimidazolidin-4-yl)serylserylglycyl-β-methylphenylalanyl]]
16 µg/mL: MIC Streptococcus pneumoniae (ATCC 6301) (Streptococcus sp.; strain ATCC 6301) | MIC Streptococcus pneumoniae (GC 1894) (Streptococcus sp.; strain GC 1894) | MIC Streptococcus agalactiae (GC 4564) (Streptococcus sp.; strain GC 4564) | MIC Staphylococcus aureus (GC 4541) (Staphylococcus sp.) | MIC Enterococcus faecalis (GC 2242) (Enterococcus sp.; strain GC 2242) | MIC Enterococcus faecium (GC 2243) (Enterococcus sp.; strain GC 2243) | MIC Enterococcus faecalis (GC 4552) (Enterococcus sp.; strain GC 4552) | MIC Enterococcus faecalis (GC 4553) (Enterococcus sp.; strain GC 4553) | MIC Enterococcus faecalis (GC 4554) (Enterococcus sp.; strain GC 4554) | MIC Enterococcus faecalis (GC 6189) (Enterococcus sp.; strain GC 6189) | MIC Escherichia coli (ATCC 25922) (Escherichia coli; strain ATCC 25922, broth dilution) | MIC Escherichia coli (GC 4559) (Escherichia coli; strain GC 4559, broth dilution)
32 µg/mL: MIC Streptococcus pneumoniae (GC 4565) (Streptococcus sp.; strain GC 4565) | MIC Enterococcus faecalis (ATCC 29212) (Enterococcus sp.; strain ATCC 29212) | MIC Enterococcus faecalis (GC 2691) (Enterococcus sp.; strain GC 2691) | MIC Enterococcus faecalis (GC 3059) (Enterococcus sp.; strain GC 3059) | MIC Enterococcus faecium (GC 4556) (Enterococcus sp.; strain GC 4556)
4 µg/mL: MIC Streptococcus pyogenes (GC 4563) (Streptococcus sp.; strain GC 4563) | MIC Staphylococcus haemolyticus (GC 4546) (Staphylococcus sp.) | MIC Coagulase Negative Staphylococcus (GC 4547) (Staphylococcus sp.) | MIC Coagulase Negative Staphylococcus (GC 4549) (Staphylococcus sp.) | MIC Coagulase Negative Staphylococcus (GC 6257) (Staphylococcus sp.; strain GC 6257) | MIC Enterococcus faecium (GC 4557) (Enterococcus sp.; strain GC 4557) | MIC Escherichia coli (GC 4560) (Escherichia coli; strain GC 4560, broth dilution)
8 µg/mL: MIC Staphylococcus aureus (ATCC 29213) (Staphylococcus sp.) | MIC Staphylococcus aureus (GC 1131) (Staphylococcus sp.) | MIC Staphylococcus aureus (GC 3051) (Staphylococcus sp.) | MIC Staphylococcus aureus (GC 3053) (Staphylococcus sp.) | MIC Staphylococcus aureus (GC 4542) (Staphylococcus sp.) | MIC Staphylococcus aureus-SMITH (GC 4543) (Staphylococcus sp.) | MIC Staphylococcus aureus (GC 4544) (Staphylococcus sp.) | MIC Staphylococcus aureus (GC 4545) (Staphylococcus sp.) | MIC Coagulase Negative Staphylococcus (GC 4548) (Staphylococcus sp.) | MIC Coagulase Negative Staphylococcus (GC 4551) (Staphylococcus sp.) | MIC Enterococcus avium (GC 4558) (Enterococcus sp.; strain GC 4558)
